Read-outs that look alike come from different tables or passages of the source.
Columns and labels:
Experiment in all cases: SAMDI mass spectrometry HDAC inhibition assay
Assay type in all cases: biochemical
[1] = biological target: HDAC1 (Homo sapiens (Human), UniProt Q13547); conditions: for inhibition at 10 µM / HDAC1 % inhibition: given if the IC50 was above 10 μM, at 10 μM; for HDAC1 inhibition, symbol / HDAC1 inhibition in words: SAMDI
Experimental: (§1) There is precedence that fluorescently labeled substrates can perturb enzyme activity and the effect of inhibitors. […] Additionally, 3-hydroxypyridine-2-ones are highly colored solids and might lead to false positive signals. Mindful of these facts, a label-free SAMDI (self-assembled monolayers for MALDI) mass spectrometry assay was also used to assess HDAC inhibition.
(§2) The SAMDI technique, wherein self-assembled monolayers (SAM) of alkanethiolates on gold are analyzed by matrix assisted laser desorption/ionization (MALDI) mass spectrometry, has been widely used to characterize many biochemical activities, including the deacetylase enzyme family.

[2] = biological target: HDAC8 (Homo sapiens (Human), UniProt Q9BY41); conditions: for inhibition at 10 µM / HDAC8 % inhibition: given if the IC50 was above 10 μM, at 10 μM
Experimental: as §1, §2

[3] = biological target: HDAC6 (Homo sapiens (Human), UniProt Q9UBN7); conditions: for IC50 / HDAC6 inhibition, symbol / HDAC6 inhibition in words: SAMDI; for IC50: read-out: HDAC6 IC50; for inhibition at 10 µM: read-out: HDAC6 % inhibition
Experimental: as §1
as §2, with “family. The SAMDI assay was used to measure the inhibition constant (K1) of fragments against HDAC1, HDAC6 and HDAC8 using a previously identified preferred HDAC substrate.” for “family.”

Chain of HDAC1 (Q13547 whole entry): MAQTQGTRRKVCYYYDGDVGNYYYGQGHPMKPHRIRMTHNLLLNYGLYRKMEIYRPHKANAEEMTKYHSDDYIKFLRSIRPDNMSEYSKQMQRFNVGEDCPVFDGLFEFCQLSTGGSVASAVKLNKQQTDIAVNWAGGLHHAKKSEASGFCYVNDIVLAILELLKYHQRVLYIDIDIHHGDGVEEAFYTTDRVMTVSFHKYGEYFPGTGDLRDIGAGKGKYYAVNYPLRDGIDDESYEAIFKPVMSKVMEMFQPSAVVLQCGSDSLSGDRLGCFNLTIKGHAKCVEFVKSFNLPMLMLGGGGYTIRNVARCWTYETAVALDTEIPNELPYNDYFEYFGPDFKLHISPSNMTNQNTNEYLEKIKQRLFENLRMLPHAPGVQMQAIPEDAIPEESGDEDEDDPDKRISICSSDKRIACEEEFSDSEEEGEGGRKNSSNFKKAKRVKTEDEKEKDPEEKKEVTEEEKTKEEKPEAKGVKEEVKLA
Chain of HDAC8 (Q9BY41 whole entry): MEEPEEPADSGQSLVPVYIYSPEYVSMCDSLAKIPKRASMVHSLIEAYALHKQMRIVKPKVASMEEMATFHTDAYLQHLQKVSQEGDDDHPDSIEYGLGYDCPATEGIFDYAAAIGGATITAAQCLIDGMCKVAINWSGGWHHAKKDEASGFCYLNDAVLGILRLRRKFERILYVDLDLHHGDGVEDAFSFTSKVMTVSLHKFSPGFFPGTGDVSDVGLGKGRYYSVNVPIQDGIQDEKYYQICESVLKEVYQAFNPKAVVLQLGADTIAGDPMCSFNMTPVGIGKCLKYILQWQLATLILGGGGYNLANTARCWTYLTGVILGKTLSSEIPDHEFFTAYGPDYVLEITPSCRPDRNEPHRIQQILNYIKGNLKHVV
Chain of HDAC6 (Q9UBN7 whole entry): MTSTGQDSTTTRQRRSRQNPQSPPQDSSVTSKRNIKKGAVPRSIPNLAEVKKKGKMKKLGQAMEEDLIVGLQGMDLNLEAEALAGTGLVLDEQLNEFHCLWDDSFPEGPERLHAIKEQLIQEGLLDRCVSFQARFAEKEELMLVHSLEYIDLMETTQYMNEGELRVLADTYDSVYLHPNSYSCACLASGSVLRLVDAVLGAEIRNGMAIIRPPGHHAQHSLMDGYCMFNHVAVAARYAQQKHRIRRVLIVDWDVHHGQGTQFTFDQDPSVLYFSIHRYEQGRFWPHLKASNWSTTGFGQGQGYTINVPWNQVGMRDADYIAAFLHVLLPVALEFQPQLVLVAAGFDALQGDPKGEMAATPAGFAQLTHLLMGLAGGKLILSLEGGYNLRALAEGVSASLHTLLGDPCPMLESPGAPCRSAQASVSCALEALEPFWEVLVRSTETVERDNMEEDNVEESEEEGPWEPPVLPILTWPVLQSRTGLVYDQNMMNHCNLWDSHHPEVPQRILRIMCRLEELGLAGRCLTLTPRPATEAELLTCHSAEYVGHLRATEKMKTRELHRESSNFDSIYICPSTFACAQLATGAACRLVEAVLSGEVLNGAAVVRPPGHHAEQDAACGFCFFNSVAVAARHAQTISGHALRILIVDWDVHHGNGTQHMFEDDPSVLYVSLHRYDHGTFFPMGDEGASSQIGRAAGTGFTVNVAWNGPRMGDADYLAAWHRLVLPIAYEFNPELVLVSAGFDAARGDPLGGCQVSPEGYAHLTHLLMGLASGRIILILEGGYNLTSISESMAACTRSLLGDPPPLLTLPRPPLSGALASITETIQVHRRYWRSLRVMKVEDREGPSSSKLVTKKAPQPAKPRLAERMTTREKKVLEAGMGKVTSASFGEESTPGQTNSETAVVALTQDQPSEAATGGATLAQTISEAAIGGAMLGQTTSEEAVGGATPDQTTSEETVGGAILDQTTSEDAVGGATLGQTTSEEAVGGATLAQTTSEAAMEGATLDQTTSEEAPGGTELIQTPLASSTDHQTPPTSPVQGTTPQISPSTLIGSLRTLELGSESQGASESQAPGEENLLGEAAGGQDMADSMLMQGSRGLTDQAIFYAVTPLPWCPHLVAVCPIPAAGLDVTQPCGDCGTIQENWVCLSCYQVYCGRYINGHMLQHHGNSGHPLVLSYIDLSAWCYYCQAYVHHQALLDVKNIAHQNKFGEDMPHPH

| inhibition at 10 µM [1] [%] | inhibition at 10 µM [2] [%] | SMILES | HDAC1 inhibition, symbol [1] | HDAC6 inhibition, symbol [3] | further results |
| --- | --- | --- | --- | --- | --- |
| 27 | 63 | Oc1cccn(CCCn2cc(-c3ccccc3)nn2)c1=S [Compound 162b, 1-Phenyltriazolylpropyl-3-hydroxypyridine-2-thione] |  |  |  |
|  |  | Oc1cccn(Cc2ccc(-c3ccccc3)cc2)c1=S [Compound 144c, 1-(1,1′-Biphenylmethyl)-3-hydroxypyridine-2-thione] | NI (No significant Inhibition (below 20% Inhibition)) |  | IC50 ([2]; SAMDI, read-out: HDAC8 IC50): 4280 ± 1550 nM; IC50 [3]: 847 ± 188 nM |
| 33 |  | N#Cc1ccc(-c2cn(CCCCCn3cccc(O)c3=S)nn2)cc1 [Compound 167d, 1-(4-Benzonitrile)triazolylpentyl-3-hydroxypyridine-2-thione] |  |  | IC50 ([2]; SAMDI, read-out: HDAC8 IC50): 1460 nM; IC50 [3]: 905 ± 249 nM |
|  |  | CN(C)c1ccc(-n2cc(Cn3cccc(O)c3=S)nn2)cc1 [Compound 154b, 1-(4-Dimethylamino)phenylltriazolylmethyl-3-hydroxypyridine-2-thione] | NI (No significant Inhibition (below 20% Inhibition)) |  | IC50 ([2]; SAMDI, read-out: HDAC8 IC50): 1870 ± 723 nM; IC50 [3]: 1020 ± 99 nM |
| 28 |  | CN(C)c1ccc(-c2cn(CCCCCn3cccc(O)c3=S)nn2)cc1 [Compound 167f] |  |  | IC50 ([2]; SAMDI, read-out: HDAC8 IC50): 1480 nM; IC50 [3]: 1010 ± 425 nM |
|  |  | N#Cc1ccc(-c2ccc(Cn3cccc(O)c3=S)cc2)cc1 [Compound 149a, 1-(4-Cyano-(1,1′-biphenylmethyl))-3-hydroxyoxypyridine-2-thione] | NI (No significant Inhibition (below 20% Inhibition)) |  | IC50 ([2]; SAMDI, read-out: HDAC8 IC50): 2080 ± 459 nM; IC50 ([2]; SAMDI, read-out: HDAC8 activity (IC50)): ~2000 nM; IC50 [3]: 957 ± 159 nM |
|  |  | O=c1c(O)cccn1CCCCCn1cc(-c2ccccc2)nn1 [Compound 159d, 1-Phenyltriazolylpentyl-3-hydroxypyridine-2-one] |  | NI (No significant Inhibition (below 20% Inhibition)) | HDAC1 % inhibition [1]: 43%; HDAC8 % inhibition [2]: 30% |
|  | 8 | O=c1c(O)cccn1Cc1ccc(-c2ccccc2)cc1 [Compound 142c, 1-(1,1′-Biphenylmethyl)-3-hydroxypyridine-2-one] | NI (No significant Inhibition (below 20% Inhibition)) | NI (No significant Inhibition (below 20% Inhibition)) |  |
|  |  | O=c1[nH]cccc1O [3-hydroxypyridine-2-one, reference compound] | NI (No significant Inhibition (below 20% Inhibition)) | NI (No significant Inhibition (below 20% Inhibition)) | HDAC1 inhibition in words [1]: inactive; HDAC8 inhibition in words ([2]; SAMDI): inactive; HDAC8 inhibition, symbol ([2]; SAMDI): NI (No significant Inhibition (below 20% Inhibition)); HDAC6 inhibition in words [3]: inactive |
|  | 37 | CN(C)c1ccc(-c2ccc(Cn3cccc(O)c3=O)cc2)cn1 [Compound 148h] | NI (No significant Inhibition (below 20% Inhibition)) | NI (No significant Inhibition (below 20% Inhibition)) |  |
| 23 |  | Oc1cccn(CCCCCCn2cc(-c3ccccc3)nn2)c1=S [Compound 162e, 1-Phenyltriazolylhexyl-3-hydroxypyridine-2-thione] |  |  | inhibition at 10 µM [3]: 22% |
|  | 8 | Cn1cccc(O)c1=O [Compound 142a, 1-Methyl-3-hydroxypyridine-2-one] | NI (No significant Inhibition (below 20% Inhibition)) | NI (No significant Inhibition (below 20% Inhibition)) |  |
| 19 |  | Cc1cccc(-c2cn(CCCCCn3cccc(O)c3=S)nn2)c1 [Compound 167b, 1-(3-Tolyl)triazolylpentyl-3-hydroxypyridine-2-thione] |  |  |  |
| 70 | 26 | N#Cc1ccc(-c2cn(CCCCCn3cccc(O)c3=O)nn2)cc1 [Compound 166d, 1-(4-Benzonitrile)triazolylpentyl-3-hydroxypyridine-2-one] |  | NI (No significant Inhibition (below 20% Inhibition)) |  |
|  |  | O=c1c(O)cccn1CCCCCCCn1cc(-c2ccccc2)nn1 [Compound 159f, 1-Phenyltriazolylheptyl-3-hydroxypyridine-2-one] |  |  | HDAC1 % inhibition [1]: 2%; HDAC8 % inhibition [2]: 42%; HDAC6 % inhibition ([3]; at 10 μM, given if the IC50 was above 10 μM): 34% |
|  | 16 | N#Cc1ccc(-c2ccc(Cn3cccc(O)c3=O)cc2)cc1 [Compound 148a] | NI (No significant Inhibition (below 20% Inhibition)) | NI (No significant Inhibition (below 20% Inhibition)) |  |

| inhibition at 10 µM [1] [%] | inhibition at 10 µM [2] [%] | SMILES | HDAC1 inhibition, symbol [1] | HDAC6 inhibition, symbol [3] | further results |
| --- | --- | --- | --- | --- | --- |
|  |  | Cc1cccc(-c2ccc(Cn3cccc(O)c3=S)cc2)c1 [Compound 149e, 1-(3-Methyl-(1,1′-biphenylmethyl))-3-hydroxyoxypyridine-2-thione] | NI (No significant Inhibition (below 20% Inhibition)) |  | IC50 ([2]; SAMDI, read-out: HDAC8 IC50): 2500 ± 1180 nM; IC50 [3]: 812 ± 286 nM |
| 59 | 28 | CN(C)c1ccc(-c2cn(CCCCCn3cccc(O)c3=O)nn2)cc1 [Compound 166f, 1-(4-(N,N-dimethylaniline))triazolylpentyl-3-hydroxypyridine-2-one] |  | NI (No significant Inhibition (below 20% Inhibition)) |  |
|  | 8 | O=c1c(O)cccn1Cc1ccccc1 [Compound 142b, 1-Benzyl-3-hydroxypyridine-2-one] | NI (No significant Inhibition (below 20% Inhibition)) | NI (No significant Inhibition (below 20% Inhibition)) |  |
| 31 |  | Cc1ccc(-c2cn(CCCCCn3cccc(O)c3=S)nn2)cc1 [Compound 167a, 1-(4-Tolyl)triazolylpentyl-3-hydroxypyridine-2-thione] |  |  |  |
| 12 | 15 | O=c1c(O)cccn1CCn1cc(-c2ccccc2)nn1 [Compound 159a, 1-Phenyltriazolylethyl-3-hydroxypyridine-2-one] |  | NI (No significant Inhibition (below 20% Inhibition)) |  |
| 66 | 15 | Cc1ccc(-c2cn(CCCCCn3cccc(O)c3=O)nn2)cc1 [Compound 166a, 1-(4-Tolyl)triazolylpentyl-3-hydroxypyridine-2-one] |  | NI (No significant Inhibition (below 20% Inhibition)) |  |
| 71 | 14 | N#Cc1ccc(-c2cn(CCCCCn3cccc(O)c3=O)nn2)cc1C(F)(F)F [Compound 166g, 1-(4-(3-Trifluomethyl)-benzonitrile)triazolylpentyl-3-hydroxypyridine-2-one] |  | NI (No significant Inhibition (below 20% Inhibition)) |  |
|  | 9 | N#Cc1cccc(-c2ccc(Cn3cccc(O)c3=O)cc2)c1 [Compound 148b, 1-(3-Cyano-(1,1′-biphenylmethyl))-3-hydroxyoxypyridine-2-one] | NI (No significant Inhibition (below 20% Inhibition)) | NI (No significant Inhibition (below 20% Inhibition)) |  |
|  | 16 | O=c1c(O)cccn1Cc1ccc(-c2ccncc2)cc1 [Compound 148i, 1-(4-(Pyridine-4-yl)benzyl)-3-hydroxypyridine-2-one] | NI (No significant Inhibition (below 20% Inhibition)) | NI (No significant Inhibition (below 20% Inhibition)) |  |
|  |  | Oc1ccc[nH]c1=S [3-hydroxypyridine-2-thione, reference compound] | NI (No significant Inhibition (below 20% Inhibition)) |  | HDAC1 inhibition in words [1]: inactive; HDAC8 inhibition in words ([2]; SAMDI): low micromolar IC50 values; IC50 ([2]; Table 14, read-out: HDAC 8 (nm)): 3680 ± 1200 nM; HDAC6 inhibition in words [3]: low micromolar IC50 values; IC50 [3]: 681 ± 110 nM |
|  | 9 | Cc1ccccc1-c1ccc(Cn2cccc(O)c2=O)cc1 [Compound 148f, 1-(2-Methyl-(1,1′-biphenylmethyl))-3-hydroxyoxypyridine-2-one] | NI (No significant Inhibition (below 20% Inhibition)) | NI (No significant Inhibition (below 20% Inhibition)) |  |
|  | 4 | Cc1ccccc1-c1cn(CCCCCn2cccc(O)c2=O)nn1 [Compound 166c, 1-(2-Tolyl)triazolylpentyl-3-hydroxypyridine-2-one] |  | NI (No significant Inhibition (below 20% Inhibition)) |  |
|  | 35 | CN(C)c1ccc(-c2ccc(Cn3cccc(O)c3=O)cc2)cc1 [Compound 148g, 1-(4-Dimethylamino-(1,1′-biphenylmethyl))-3-hydroxyoxypyridine-2-one] | NI (No significant Inhibition (below 20% Inhibition)) |  | inhibition at 10 µM [3]: 11% |
|  |  | Cc1ccc(-c2ccc(Cn3cccc(O)c3=S)cc2)cc1 [Compound 149d, 1-(4-Methyl-(1,1′-biphenylmethyl))-3-hydroxyoxypyridine-2-thione] | NI (No significant Inhibition (below 20% Inhibition)) |  | IC50 ([2]; SAMDI, read-out: HDAC8 IC50): 800 ± 304 nM; IC50 [3]: 454 ± 42 nM |
|  | 17 | O=c1c(O)cccn1Cc1cn(-c2ccccc2)nn1 [Compound 152a, 1-Phenyltriazolylmethyl-3-hydroxypyridine-2-one] | NI (No significant Inhibition (below 20% Inhibition)) | NI (No significant Inhibition (below 20% Inhibition)) |  |

— patent publication US8871728B2, “Non-peptide macrocyclic histone deacetylese (HDAC) inhibitors and methods of making and using thereof” (Georgia Tech Research Corporation, priority 2007, dated 2014)
